15 compounds from patent US20230114241A1, “METHODS OF TREATING EPILEPSY USING THE SAME” (Trevena, Inc., priority 2019, published 2023) can be followed below.

Bounds are passed on as bounds.

In one test the target is human sphingosine-1-phosphate receptor 1 (S1P1) (Homo sapiens, UniProt P21453). Nature of the test: Inhibition of cAMP production (HTRF cAMP HiRange), S1P1 CHO-K1 cells. It is filed as cell-based. As to conditions: inhibition of cAMP production, S1P1; read-out: hS1P1 CAMP pEC50 (converted). The essentials: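 CHO-K1 cells co-expressing human S1P1 (C-terminal ProLink tag) and EA-β-arrestin2, plated overnight; after 30 min compound incubation at 37 °C, intracellular cAMP measured by HTRF TR-FRET following 1 h at room temperature. Values normalized to fingolimod.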
Chain of human sphingosine-1-phosphate receptor 1 (S1P1) (P21453 whole entry): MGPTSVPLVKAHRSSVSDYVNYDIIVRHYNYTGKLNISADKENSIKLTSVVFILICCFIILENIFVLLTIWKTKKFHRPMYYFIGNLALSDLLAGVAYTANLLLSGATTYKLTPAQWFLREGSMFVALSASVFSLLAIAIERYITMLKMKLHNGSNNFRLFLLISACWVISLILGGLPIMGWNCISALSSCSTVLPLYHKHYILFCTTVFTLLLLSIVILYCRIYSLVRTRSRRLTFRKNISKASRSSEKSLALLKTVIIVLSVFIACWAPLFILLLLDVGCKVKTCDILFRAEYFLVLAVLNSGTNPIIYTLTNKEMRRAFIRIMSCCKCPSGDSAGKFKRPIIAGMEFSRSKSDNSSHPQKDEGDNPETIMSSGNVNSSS
As for `CC(C)n1nnc2cc(-c3nc(-c4ccccc4N)co3)ccc21` [Compound 438, 2-{2-[1-(propan-2-yl)-1H-1,2,3-benzotriazol-5-yl]-1,3-oxazol-4-yl}aniline], the EC50 is less than 316 nM.
Still for that read-out and setting: in the case of `CCc1ccccc1-c1nc(-c2ccc3c(c2)nnn3C(C)(C)CO)no1` [Compound 624, 2-(5-(5-(2-ethyl-phenyl)-1,2,4-oxadiazol-3-yl)-1H-benzo[d][1,2,3]triazol-1-yl)-2-methyl-propan-1-ol] it was greater than 316 nM.
The same measure, in the same setting: in the case of `C=CCNc1ccc(-c2ccc(-c3ccc4c(c3)nnn4C(C)C)cc2)cc1C#N` [Compound 508, 4-(allylamino)-4′-(1-isopropyl-1H-benzo[d][1,2,3]triazol-5-yl)-[1,1′-biphenyl]-3-carbonitrile] it was greater than 316 nM; in that of `CC(C)n1nnc2cc(-c3nc4ccncc4o3)ccc21` [Compound 503, 2-(1-isopropyl-1H-benzo[d][1,2,3]triazol-5-yl)oxazolo[5,4-c]pyridine], greater than 316 nM.
Regarding `COc1ccc2oc(-c3ccc4c(c3)nnn4CC(C)C)nc2c1` [Compound 451, 2-(1-isobutyl-1H-benzo[d][1,2,3]triazol-5-yl)-5-methoxy-benzo[d]oxazole], the EC50 is less than 316 nM.

The test is the same for the next values; noted with them: inhibition of cAMP production; potency; read-out: hS1P1 CAMP pEC50 (converted).
As to `CCC1(CC)CC(=O)c2cc(-c3nc(-c4ccncc4C(F)(F)F)no3)ccc2O1` [Compound 313, 2,2-diethyl-6-(3-(3-(trifluoromethyl)pyridin-4-yl)-1,2,4-oxadiazol-5-yl)chroman-4-one], the EC50 was less than 316 nM.
The same measure, in the same setting: in the case of `CC(C)n1nnc2cc(-c3noc(-c4ccccc4F)n3)ccc21` [Compound 307, 5-(2-fluorophenyl)-3-(1-isopropyl-1H-benzo[d][1,2,3]triazol-5-yl)-1,2,4-oxadiazole] it was less than 316 nM.
On the same count and under the same terms, the result for `CC(C)Nc1ccc(-c2nc(-c3ccc4c(c3)CCC(=O)N4)no2)cc1C#N` [Compound 259, 2-(isopropylamino)-5-(3-(2-oxo-1,2,3,4-tetrahydroquinolin-6-yl)-1,2,4-oxadiazol-5-yl)benzonitrile] reads less than 316 nM; that for `COc1cccc(-c2cnc(-c3ccc4c(c3)nnn4C(C)C)s2)c1` [Compound 108, 2-(1-isopropyl-1H-benzo[d][1,2,3]triazol-5-yl)-5-(3-methoxy-phenyl)thiazole], less than 316 nM; that for `Cc1ccsc1-c1noc(-c2ccc3c(c2)nnn3CC2CC2)n1` [Compound 239, 1-(cyclopropyl-methyl)-5-[3-(3-methylthiophen-2-yl)-1,2,4-oxadiazol-5-yl]-1H-1,2,3-benzotriazole], greater than 316 nM.
On the same count and under the same terms, the result for `Cc1cc(C)cc(-c2noc(-c3ccc4c(c3)nnn4C3CCCCC3)n2)c1` [Compound 158, 1-cyclohexyl-5-[3-(3,5-dimethylphenyl)-1,2,4-oxadiazol-5-yl]-1H-1,2,3-benzotriazole] reads greater than 316 nM; that for `CCC1(CC)CC(=O)c2cc(-c3nnc(-c4ccc5c(c4)nnn5C(C)C)o3)ccc2O1` [Compound 223, 2,2-diethyl-6-(5-(1-isopropyl-1H-benzo[d][1,2,3]triazol-5-yl)-1,3,4-oxadiazol-2-yl)chroman-4-one], greater than 316 nM.
Turning to `COc1ccccc1-c1noc(-c2ccc3c(c2)nnn3C(C)(C)C)n1` [Compound 207, 1-tert-butyl-5-[3-(2-methoxyphenyl)-1,2,4-oxadiazol-5-yl]-1H-1,2,3-benzotriazole], the EC50 is less than 316 nM.
Same read-out and setting: in the case of `CC(C)n1ncc2cc(-c3nc(-c4ccccc4OC(F)(F)F)no3)ccc21` [Compound 331, 5-(1-isopropyl-1H-indazol-5-yl)-3-(2-(trifluoro-methoxy)phenyl)-1,2,4-oxadiazole] it was less than 316 nM; in that of `O=C1CC2(CCCCC2)Oc2ccc(-c3nc(-c4ccncc4)no3)cc21` [Compound 280, 6-[3-(pyridin-4-yl)-1,2,4-oxadiazol-5-yl]-3,4-dihydrospiro[1-benzopyran-2,1′-cyclohexane]-4-one], greater than 316 nM.
